Test in all cases: relative viability (nuclei count vs DMSO), 5 days (fraction); higher = more cells survive
Compound in assay [1]: CCn1c(-c2nonc2N)nc2cnc(Oc3cccc(NC(=O)c4ccc(OCCN5CCOCC5)cc4)c3)cc21 + CC(=O)c1c(C)c2cnc(Nc3ccc(N4CCNCC4)cn3)nc2n(C2CCCC2)c1=O [Palbociclib] (partner 0.5 µM)
The method, boiled down:
(§1)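 Values are medians from duplicate plates. Each reflects relative viability, defined as the nuclei count of treated wells over that of vehicle wells. Lung cancer cell lines in 1536-well plates were pin-tool dosed one day after seeding with one drug alone or with a fixed anchor-drug dose plus five library-drug doses (not always all listed) in √10 steps, then fixed, stained and imaged at 4× after 5 days.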

Compound in assay [2]: CCn1c(-c2nonc2N)nc2cnc(Oc3cccc(NC(=O)c4ccc(OCCN5CCOCC5)cc4)c3)cc21 + C[C@]1(O)C[C@@H](c2nc(-c3ccc4ccc(-c5ccccc5)nc4c3)c3c(N)nccn32)C1 [Linsitinib] (partner 1 µM)
The procedure, abridged: as §1

Compound in assay [3]: CCC1=CN=CN=C1N2CCN(CC2)CC3=NC4=C(N3)C=C(C=C4)C(F)(F)F + O=C(c1cc(Cc2n[nH]c(=O)c3ccccc23)ccc1F)N1CCN(C(=O)C2CC2)CC1 [Olaparib] (partner 8 µM)
The procedure, abridged: as §1

Compound in the assay “Mirin + Palbociclib”: N=C1NC(=O)/C(=C/c2ccc(O)cc2)S1 [Mirin] + CC(=O)c1c(C)c2cnc(Nc3ccc(N4CCNCC4)cn3)nc2n(C2CCCC2)c1=O [Palbociclib] (partner 0.5 µM)
The method, boiled down:
as §1

The text below walks through data of the supplement of paper PMC10307832.

As to UMC-11, the relative viability turned out to be 0.277 in assay [1] (first compound 0.04 µM); 0.379 in assay [1] (first compound 0.1265 µM); 0.269 in assay [1] (first compound 0.4 µM); 0.151 in assay [1] (first compound 1.265 µM); 0.248 in assay [1] (first compound 4 µM); 1.14 in assay [2] (first compound 0.04 µM). The relative viability in assay [2] (first compound 0.1265 µM) is 1.07; in assay [2] (first compound 0.4 µM) it was 0.915; in assay [2] (first compound 1.265 µM), 0.322; in assay [2] (first compound 4 µM), 0.337; in assay [3] (first compound 0.04 µM), 0.393; in assay [3] (first compound 0.1265 µM), 0.392. Further, the relative viability in assay [3] (first compound 0.4 µM) came out at 0.359; in assay [3] (first compound 1.265 µM) it was 0.32; in assay [3] (first compound 4 µM), 0.332; in the assay with Mirin + Palbociclib (first compound 0.25 µM), 0.33; with Mirin + Palbociclib (first compound 2.5 µM), 0.317; in the assay with Mirin + Palbociclib (first compound 7.906 µM), 0.331. Besides, in the assay with Mirin + Palbociclib (first compound 25 µM), the relative viability amounted to 0.309.
